Data reported in patent publication US11976073B2, “Bicyclic amines as CDK2 inhibitors” (Incyte Corporation, priority 2021, dated 2024).

How the values were obtained:
[1] = biological target: T1, CDK2/Cyclin E1 (Homo sapiens, UniProt P24941); test: CDK2/Cyclin E1 HTRF enzyme activity assay; assay type: biochemical; settings: 1 mM ATP
T1 construct: utilize full-length human CDK2 co-expressed as N-terminal GST-tagged protein; GST (N); purchased Carna 04-165; host or cells: baculovirus expression system
Description: Example A. CDK2/Cyclin E1 HTRF Enzyme Activity Assay
CDK2/Cyclin E1 enzyme activity assays utilize full-length human CDK2 co-expressed as N-terminal GST-tagged protein with FLAG-Cyclin E1 in a baculovirus expression system (Carna Product Number 04-165). Assays were conducted in white 384-well polystyrene plates in a final reaction volume of 8 μL. CDK2/Cyclin E1 (0.25 nM) was incubated with the compounds of the Examples (40 nL serially diluted in DMSO) in the presence of ATP (50 μM or 1 mM) and 50 nM ULight™-labeled eIF4E-binding protein 1 (THR37/46) peptide (PerkinElmer) in assay buffer (containing 50 mM HEPES pH 7.5, 1 mM EGTA, 10 mM MgCl2, 2 mM DTT, 0.05 mg/mL BSA, and 0.01% Tween 20) for 60 minutes at room temperature. The reactions were stopped by the addition of EDTA and Europium-labeled anti-phospho-4E-BP1 antibody (PerkinElmer), for a final concentration of 15 mM and 1.5 nM, respectively. HTRF signals were read after 1 hour at room temperature on a PHERAstar FS plate reader (BMG Labtech). Data was analyzed with IDBS XLFit and GraphPad Prism 5.0 software using a three or four parameter dose response curve to determine IC50 for each compound.

[2] = biological target: CDK2 (Homo sapiens, UniProt P24941); test: Enzymatic binding data against CDK2 (comparison of isomeric peaks); assay type: biochemical; settings: Peak 1 vs Peak 2 of Example 2, TFA salts
Description: To a solution of 6-(1-(1-ethoxyethyl)-1H-pyrazol-4-yl)-5-(1-(trifluoromethyl)cyclobutoxy)-[1,2,4]triazolo[…] (20 mg, 0.05 mmol) and 4-(methylsulfonyl)cyclohexan-1-one (26 mg, 0.15 mmol) in DCE (0.8 mL) was added TFA (0.2 mL) and sodium triacetoxyborohydride (31 mg, 0.15 mmol) and the resulting solution was stirred at 60° C. After 4 h, a second aliquot of 4-(methylsulfonyl)cyclohexan-1-one (13 mg, 0.08 mmol) and sodium triacetoxyborohydride (15 mg, 0.08 mmol) was added and stirring was continued overnight at 60° C. The volatiles were removed and the residue was dissolved in CH3CN and purified by prep-HPLC (Sunfire C18 column, eluting with a gradient of 21% to 39% acetonitrile/water containing 0.1% TFA over 12 minutes at a flow rate of 60 mL/min) to afford two isomeric peaks as their TFA salts. Peak 1 eluted at 8.8 min and Peak 2 eluted at 9.9 min. […] LC-MS calculated for C20H25F3N7O3S (M+H)^+: m/z=500.2; found 500.2.

CS(=O)(=O)C1CCC(Nc2nc3cnc(-c4cn[nH]c4)c(OC4(C(F)(F)F)CCC4)n3n2)CC1 (single isomer, unassigned) [Example 2, N-(4-(Methylsulfonyl)cyclohexyl)-6-(1H-pyrazol-4-yl)-5-(1-(trifluoromethyl)cyclobutoxy)-[1,2,4]triazolo[1,5-a]pyrazin-2-amine]
IC50 [1]: ≤ 10 nM
relative activity of the isomeric peaks against CDK2 [2]: more active isomer

CC(C)Oc1c(-c2cn[nH]c2)ncn2nc(NC3CCC(S(C)(=O)=O)CC3)nc12 (single isomer, unassigned) [Example 1, 8-Isopropoxy-N-(4-(methylsulfonyl)cyclohexyl)-7-(1H-pyrazol-4-yl)-[1,2,4]triazolo[1,5-c]pyrimidin-2-amine]
IC50 [1]: ≤ 10 nM
